Results on 19 compounds are retold here after patent US20240116892A1, “HETEROCYCLIC AMIDE AND UREA COMPOUNDS AS JAK2 INHIBITORS” (Ajax Therapeutics, Inc., priority 2022, published 2024).

A value given as a limit tells only on which side of the number the result lay.

Sequence of JAK2 (JH1 domain-catalytic, Y1007F, Y1008F) kinase (O60674 849-1124 Y1007F/Y1008F): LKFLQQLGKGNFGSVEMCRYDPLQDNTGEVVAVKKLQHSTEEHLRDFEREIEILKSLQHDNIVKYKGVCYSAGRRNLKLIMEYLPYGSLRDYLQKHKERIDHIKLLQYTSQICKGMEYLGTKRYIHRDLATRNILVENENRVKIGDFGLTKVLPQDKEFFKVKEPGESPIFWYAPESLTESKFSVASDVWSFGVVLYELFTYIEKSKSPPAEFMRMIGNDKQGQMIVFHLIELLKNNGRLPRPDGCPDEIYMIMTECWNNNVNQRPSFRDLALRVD

The assay addresses JAK2 (JH1 domain-catalytic, Y1007F, Y1008F) kinase (Homo sapiens (Human), UniProt O60674, Y1007F/Y1008F). Nature of the assay: JAK2 JH1 Domain Binding Assay. The settings on record: qPCR readout. Here is the method: JAK2 (JH1 domain-catalytic, Y1007F, Y1008F) kinase was expressed as N-terminal fusion to the DNA binding domain of NFkB in transiently transfected HEK293 cells and subsequently tagged with DNA for qPCR detection. Streptavidin-coated magnetic beads were treated with biotinylated small molecule ligands for 30 minutes at room temperature to generate affinity resins for kinase assays. The liganded beads were blocked with excess biotin and washed with blocking buffer (SeaBlock (Pierce), 1% BSA, 0.05% Tween 20, 1 mmol/L DTT) to remove unbound ligand and to reduce nonspecific phage binding. Binding reactions were assembled by combining kinases, liganded affinity beads, and test compounds in 1× binding buffer (1× PBS, 0.05% Tween 20, 0.1% BSA, 1 mmol/L DTT). Test compound was prepared as 111× stocks in 100% DMSO and directly diluted into the assay wells. All reactions were performed in polypropylene 384-well plates in a final volume of 0.02 mL. The assay plates were incubated at room temperature with shaking for 1 hour and the affinity beads were washed with wash buffer (1× PBS, 0.05% Tween 20). The beads were then re-suspended in elution buffer (1× PBS, 0.05% Tween 20, 0.5 μmol/L non-biotinylated affinity ligand) and incubated at room temperature with shaking for 30 minutes. The kinase concentration in the eluate was measured by qPCR.
For orientation: In qPCR the cycle at which signal appears reflects the starting amount.
In general, Kd refers to the equilibrium constant for the complex coming apart. High values mean weaker binding, low ones tighter binding. For `CC(=O)Nc1cnc(N2CCC(N(C)C(=O)Nc3cccc(C(F)(F)F)c3)CC2)cn1` [Example I-16, N-(5-(4-(1-methyl-3-(3-(trifluoromethyl)phenyl)ureido)piperidin-1-yl)pyrazin-2-yl)acetamide], the Kd was under 10 nM.
With `COc1n[nH]c2ncc(N3CC[C@H](N(C)C(=O)Nc4cc(C(F)(F)F)cn(C)c4=O)[C@H](OC)C3)cc12` [Example I-106-b, 1-((3R,4S)-3-methoxy-1-(3-methoxy-1H-pyrazolo[3,4-b]pyridin-5-yl)piperidin-4-yl)-1-methyl-3-(1-methyl-2-oxo-5-(trifluoromethyl)-1,2-dihydropyridin-3-yl)urea] the figure was under 10 nM; with `COc1c[nH]c2ncc(N3CC[C@H]4[C@H](C3)OCCN4C(=O)Nc3cc(C(F)(F)F)cn(C)c3=O)nc12` [Example I-163-a, (4aS,8aS)-6-(7-methoxy-5H-pyrrolo[2,3-b]pyrazin-2-yl)-N-(1-methyl-2-oxo-5-(trifluoromethyl)-1,2-dihydropyridin-3-yl)octahydro-1H-pyrido[3,4-b][1,4]oxazine-1-carboxamide], 10 to 50 nM.
With `CNc1n[nH]c2ncc(N3CC[C@@H](N(C)C(=O)Nc4cc(C(F)(F)F)cn(C)c4=O)C(F)(F)C3)cc12` [Example I-125-a, (R)-1-(3,3-difluoro-1-(3-(methylamino)-1H-pyrazolo[3,4-b]pyridin-5-yl)piperidin-4-yl)-1-methyl-3-(1-methyl-2-oxo-5-(trifluoromethyl)-1,2-dihydropyridin-3-yl)urea] the figure was under 10 nM; with `COc1n[nH]c2ncc(C34CC(N(C)C(=O)Nc5cc(C(F)(F)F)cn(C)c5=O)(C3)C4)cc12` [Example I-156, 1-(3-(3-methoxy-1H-pyrazolo[3,4-b]pyridin-5-yl)bicyclo[1.1.1]pentan-1-yl)-1-methyl-3-(1-methyl-2-oxo-5-(trifluoromethyl)-1,2-dihydropyridin-3-yl)urea], under 10 nM.
Next, `CN(C(=O)Nc1cc(C(F)(F)F)cn(C)c1=O)[C@H]1CCN(c2cnc3[nH]c(=O)[nH]c3c2)C[C@H]1F` [Example I-100-a, 1-((3R,4S)-3-fluoro-1-(2-oxo-2,3-dihydro-1H-imidazo[4,5-b]pyridin-6-yl)piperidin-4-yl)-1-methyl-3-(1-methyl-2-oxo-5-(trifluoromethyl)-1,2-dihydropyridin-3-yl)urea]: under 10 nM; `CN(C(=O)Nc1cc(C(F)(F)F)cn(C)c1=O)[C@H]1CCN(c2cnc3[nH]c(=O)n(C)c3c2)C[C@H]1F` [Example I-103-a, 1-((3R,4S)-3-fluoro-1-(1-methyl-2-oxo-2,3-dihydro-1H-imidazo[4,5-b]pyridin-6-yl)piperidin-4-yl)-1-methyl-3-(1-methyl-2-oxo-5-(trifluoromethyl)-1,2-dihydropyridin-3-yl)urea]: under 10 nM.
Regarding `C[C@@H]1CN(c2cnc3[nH]ncc3c2)CC[C@H]1N(C)C(=O)Nc1cc(C(F)(F)F)cn(C)c1=O` [Example I-74-b, 1-methyl-1-((3R,4R)-3-methyl-1-(1H-pyrazolo[3,4-b]pyridin-5-yl)piperidin-4-yl)-3-(1-methyl-2-oxo-5-(trifluoromethyl)-1,2-dihydropyridin-3-yl)urea], the Kd fell in the range of 50 to 1000 nM.
Next, `C[C@H]1CN(C(=O)Nc2cc(C(F)(F)F)cn(C)c2=O)C2(CCN(c3cnc4[nH]cc(C#N)c4n3)CC2)C1` (single isomer, unassigned) [Example I-60-b]: 50 to 1000 nM; `CN(C(=O)Nc1cc(C(F)(F)F)cn(C)c1=O)C1(C)CCN(c2cnc3[nH]ccc3n2)CC1` [Example I-51, 1-methyl-1-(4-methyl-1-(5H-pyrrolo[2,3-b]pyrazin-2-yl)piperidin-4-yl)-3-(1-methyl-2-oxo-5-(trifluoromethyl)-1,2-dihydropyridin-3-yl)urea]: 10 to 50 nM; `CN(C(=O)Nc1cc(C(F)(F)F)cn(C)c1=O)C1CCN(c2cnc3[nH]ccc3n2)CC1(C)C` (single isomer, unassigned) [Example I-49-a, (R)- or (S)-1-(3,3-dimethyl-1-(5H-pyrrolo[2,3-b]pyrazin-2-yl)piperidin-4-yl)-1-methyl-3-(1-methyl-2-oxo-5-(trifluoromethyl)-1,2-dihydropyridin-3-yl)urea]: under 10 nM.
Compound `CN(C(=O)Nc1cc(C(F)(F)F)cn(C)c1=O)[C@H]1[C@@H]2CC[C@H]1CN(c1cnc3[nH]ccc3n1)C2` [Example I-79, 1-(3-(5H-pyrrolo[2,3-b]pyrazin-2-yl)-3-azabicyclo[3.2.1]octan-8-yl)-1-methyl-3-(1-methyl-2-oxo-5-(trifluoromethyl)-1,2-dihydropyridin-3-yl)urea] displayed a Kd of 10 to 50 nM.
Next, `CN(C(=O)Nc1cc(C(F)(F)F)cn(C)c1=O)[C@H]1C[C@H]2C[C@@H]1CN2c1cnc2[nH]ccc2n1` [Example I-43-b, 1-((1R,4R,5S)-2-(5H-pyrrolo[2,3-b]pyrazin-2-yl)-2-azabicyclo[2.2.1]heptan-5-yl)-1-methyl-3-(1-methyl-2-oxo-5-(trifluoromethyl)-1,2-dihydropyridin-3-yl)urea]: 10 to 50 nM; `CN(C(=O)Nc1cc(C(F)(F)F)cn(C)c1=O)[C@@H]1CCN(c2cnc(NC(=O)C3CC3)cn2)CC1(F)F` (single isomer, unassigned) [Example I-34-a]: under 10 nM; `Cc1cc(C(F)(F)F)cc(NC(=O)N(C)[C@H]2CCN(c3cnc4[nH]ncc4c3)C[C@@H]2F)n1` [Example I-178, 1-((35,4S)-3-fluoro-1-(1H-pyrazolo[3,4-b]pyridin-5-yl)piperidin-4-yl)-1-methyl-3-(6-methyl-4-(trifluoromethyl)pyridin-2-yl)urea]: under 10 nM.
With `COCc1cc2nc(N3CC[C@H](N(C)C(=O)Nc4cc(C(F)(F)F)cn(C)c4=O)[C@H](C)C3)cnc2[nH]1` [Example I-159-a, 1-((3R,4S)-1-(6-(methoxymethyl)-5H-pyrrolo[2,3-b]pyrazin-2-yl)-3-methylpiperidin-4-yl)-1-methyl-3-(1-methyl-2-oxo-5-(trifluoromethyl)-1,2-dihydropyridin-3-yl)urea] the figure was under 10 nM.
With `COc1n[nH]c2ncc(N3CCC(N(C)C(=O)Nc4cc(C5CC5)cn([C@@H]5CCCOC5)c4=O)CC3)cc12` [Example I-136-b, (R)-3-(5-cyclopropyl-2-oxo-1-(tetrahydro-2H-pyran-3-yl)-1,2-dihydropyridin-3-yl)-1-(1-(3-methoxy-1H-pyrazolo[3,4-b]pyridin-5-yl)piperidin-4-yl)-1-methylurea] the figure was under 10 nM.
With `Cn1cc(C(F)(F)F)cc(NC(=O)N2CCO[C@@H]3CN(c4cnc5[nH]ccc5n4)CC[C@H]32)c1=O` [Example I-128-b, (4aR,8aR)-N-(1-methyl-2-oxo-5-(trifluoromethyl)-1,2-dihydropyridin-3-yl)-6-(5H-pyrrolo[2,3-b]pyrazin-2-yl)octahydro-1H-pyrido[3,4-b][1,4]oxazine-1-carboxamide], the Kd is under 10 nM.
`CNc1n[nH]c2ncc(N3CCC(N(C)C(=O)Nc4cc(C(F)(F)F)cn(C)c4=O)CC3)cc12` [Example I-99, 1-methyl-3-(1-methyl-2-oxo-5-(trifluoromethyl)-1,2-dihydropyridin-3-yl)-1-(1-(3-(methylamino)-1H-pyrazolo[3,4-b]pyridin-5-yl)piperidin-4-yl)urea] displayed a Kd of under 10 nM.
